Data on eight molecules can be found in ChEMBL document CHEMBL3822401, “PEGylated Bis-Sulfonamide Carbonic Anhydrase Inhibitors Can Efficiently Control the Growth of Several Carbonic Anhydrase IX-Expressing Carcinomas” (J Med Chem, 2016).

Structures are written as SMILES. Calls of active or inactive are those of the source. The calls are words filed in the database; no cut-off is given here.

The subject of assay [1] is MDA-MB-231. Description: Cytotoxicity against human MDA-MB-231 cells expressing carbonic anhydrase 9/12 assessed as cell viability at 100 uM after 24 hrs under normoxic conditions by MTT assay. The format is functional. The settings on record: MDA-MB-231, 24 h, read-out: Activity. (In general: Tetrazolium assays rely on reduction of a dye to a coloured formazan, in cell work by metabolically active cells.)

Assay [2] deals with MDA-MB-231. Kind of assay: Cytotoxicity against human MDA-MB-231 spheroids expressing carbonic anhydrase 9/12 assessed as cell viability at 100 uM after 24 hrs by WST8 assay. The class given is functional.
In assay [3] the test system is HT-29. Kind of assay: Cytotoxicity against human HT-29 cells expressing carbonic anhydrase 9/12 assessed as cell viability at 1 mM after 24 hrs under hypoxic conditions by MTT assay. The format is functional. The settings on record: HT-29, 24 h, read-out: Activity.
A short description of assay [4]: (§1) Cytotoxicity against human SKOV3 spheroids expressing carbonic anhydrase 9/12 assessed as cell viability at 1 mM after 24 hrs by WST8 assay. The class given is functional. The settings on record: SK-OV-3, 24 h, read-out: Activity.
The subject of assay [5] is MDA-MB-231. Description: Cytotoxicity against human MDA-MB-231 cells expressing carbonic anhydrase 9/12 assessed as cell viability at 100 uM after 24 hrs under hypoxic conditions by MTT assay. The class given is functional. The settings on record: MDA-MB-231, 24 h, read-out: Activity.
The test system of assay [6] is MDA-MB-231. Description: Cytotoxicity against human MDA-MB-231 cells expressing carbonic anhydrase 9/12 assessed as cell viability at 1 mM after 24 hrs under normoxic conditions by MTT assay. The class given is functional. Conditions: MDA-MB-231, 24 h, read-out: Activity.
Assay [7] relates to HT-29. Description: Cytotoxicity against human HT-29 cells expressing carbonic anhydrase 9/12 assessed as cell viability at 1 mM after 24 hrs under normoxic conditions by MTT assay. The format is functional. The settings on record: HT-29, 24 h, read-out: Activity.
Assay [8] relates to HT-29. Kind of assay: Cytotoxicity against human HT-29 cells expressing carbonic anhydrase 9/12 assessed as cell viability at 100 uM after 24 hrs under normoxic conditions by MTT assay. The settings on record: HT-29, 24 h, read-out: Activity. The format is functional.
The target in another assay is Carbonic anhydrase 9 (Homo sapiens, UniProt Q16790).
In assay [9] the test system is MDA-MB-231. Kind of assay: Cytotoxicity against human MDA-MB-231 spheroids expressing carbonic anhydrase 9/12 assessed as cell viability at 1 mM after 24 hrs by WST8 assay. The class given is functional.
The subject of assay [10] is MDA-MB-231. Kind of assay: Cytotoxicity against human MDA-MB-231 cells expressing carbonic anhydrase 9/12 assessed as cell viability at 1 mM after 24 hrs under hypoxic conditions by MTT assay. The format is functional. The settings on record: MDA-MB-231, 24 h, read-out: Activity.
A short description of assay [11]: (§2) Cytotoxicity against human SKOV3 spheroids expressing carbonic anhydrase 9/12 assessed as cell viability at 100 uM after 24 hrs by WST8 assay. The format is functional. Conditions: SK-OV-3, 24 h, read-out: Activity.
Assay [12] can be described thus: Cytotoxicity against human SKOV3 cells expressing carbonic anhydrase 9/12 assessed as cell viability at 1 mM after 24 hrs under normoxic conditions by MTT assay. Conditions: SK-OV-3, 24 h, read-out: Activity. The class given is functional.
In assay [13] the test system is HT-29. Description: Cytotoxicity against human HT-29 spheroids expressing carbonic anhydrase 9/12 assessed as cell viability at 100 uM after 24 hrs by WST8 assay. The format is functional.
Assay [14] can be described thus: Cytotoxicity against human SKOV3 cells expressing carbonic anhydrase 9/12 assessed as cell viability at 10 uM after 24 hrs under hypoxic conditions by MTT assay. The format is functional. The settings on record: SK-OV-3, 24 h, read-out: Activity.
For assay [15], the system named is HT-29. Description: Cytotoxicity against human HT-29 spheroids expressing carbonic anhydrase 9/12 assessed as cell viability at 1 mM after 24 hrs by WST8 assay. The format is functional.
The test system of assay [16] is MDA-MB-231. Kind of assay: Cytotoxicity against human MDA-MB-231 cells expressing carbonic anhydrase 9/12 assessed as cell viability at 10 uM after 24 hrs under hypoxic conditions by MTT assay. The class given is functional. Conditions: MDA-MB-231, 24 h, read-out: Activity.
Assay [17] is described as follows: Cytotoxicity against human SKOV3 cells expressing carbonic anhydrase 9/12 assessed as cell viability at 100 uM after 24 hrs under normoxic conditions by MTT assay. The class given is functional. Conditions: SK-OV-3, 24 h, read-out: Activity.
The nature of assay [18]: Cytotoxicity against human SKOV3 cells expressing carbonic anhydrase 9/12 assessed as cell viability at 100 uM after 24 hrs under hypoxic conditions by MTT assay. Conditions: SK-OV-3, 24 h, read-out: Activity. The class given is functional.
A short description of assay [19]: Cytotoxicity against human SKOV3 cells expressing carbonic anhydrase 9/12 assessed as cell viability at 10 uM after 24 hrs under normoxic conditions by MTT assay. The format is functional. The settings on record: SK-OV-3, 24 h, read-out: Activity.
Assay [20] deals with HT-29. Kind of assay: Cytotoxicity against human HT-29 cells expressing carbonic anhydrase 9/12 assessed as cell viability at 10 uM after 24 hrs under hypoxic conditions by MTT assay. The class given is functional. Conditions: HT-29, 24 h, read-out: Activity.
The subject of assay [21] is MDA-MB-231. Description: Cytotoxicity against human MDA-MB-231 cells expressing carbonic anhydrase 9/12 assessed as cell viability at 10 uM after 24 hrs under normoxic conditions by MTT assay. The class given is functional. Conditions: MDA-MB-231, 24 h, read-out: Activity.
Assay [22] relates to HT-29. Description: Cytotoxicity against human HT-29 cells expressing carbonic anhydrase 9/12 assessed as cell viability at 10 uM after 24 hrs under normoxic conditions by MTT assay. The class given is functional. Conditions: HT-29, 24 h, read-out: Activity.
Assay [23] deals with HT-29. Description: Cytotoxicity against human HT-29 cells expressing carbonic anhydrase 9/12 assessed as cell viability at 100 uM after 24 hrs under hypoxic conditions by MTT assay. The class given is functional. The settings on record: HT-29, 24 h, read-out: Activity.
The nature of assay [24]: Cytotoxicity against human SKOV3 cells expressing carbonic anhydrase 9/12 assessed as cell viability at 1 mM after 24 hrs under hypoxic conditions by MTT assay. Conditions: SK-OV-3, 24 h, read-out: Activity. The format is functional.
The subject of assay [25] is SK-OV-3. Described as §1. The class given is functional.
The test system of assay [26] is SK-OV-3. The assay is described as §2. The class given is functional.
Where [27] appears, read: MDA-MB-231, 24 h, read-out: Activity.
The mark [28] stands for this setting: HT-29, 24 h, read-out: Activity.

Description for Carbonic anhydrase 9: Inhibition of human recombinant carbonic anhydrase 9 preincubated for 15 mins prior to testing by stopped-flow CO2 hydration assay

Usually Ki stands for the equilibrium dissociation constant of an inhibitor or competing ligand from its target. As to `NS(=O)(=O)c1nnc(NC(=O)CCC(=O)NCCOCCOCCOCCOCCOCCOCCOCCOCCOCCOCCOCCOCCOCCOCCOCCOCCOCCOCCOCCOCCOCCOCCOCCOCCOCCOCCOCCOCCOCCOCCOCCOCCOCCOCCOCCOCCOCCOCCOCCOCCOCCOCCOCCOCCOCCNC(=O)CCC(=O)Nc2nnc(S(N)(=O)=O)s2)s1`, the viability at 100 µM worked out at 50% in the assay on MDA-MB-231 [1]; 90% in the assay with MDA-MB-231 [2] (setting [27]); 50% in the assay on MDA-MB-231 [5]; 50% in the assay with HT-29 [8]; 80% in assay [11]; 70% in the assay on HT-29 [13] (setting [28]). The viability at 100 µM (in assay [17]; in assay [18]; in the assay on HT-29 [23]) was 50% each time. The viability at 1000 µM was found to be 30% in the assay with HT-29 [3]; 50% in [4]; 30% in the assay on MDA-MB-231 [6]; 30% with HT-29 [7]; 80% with MDA-MB-231 [9] (setting [27]); 30% in the assay with MDA-MB-231 [10]. For the same molecule, the viability at 1000 µM was found to be 30% in assay [12], 60% in the assay on HT-29 [15] (setting [28]) and 30% in [24]. The affinity on Carbonic anhydrase 9 corresponds to a Ki of 2.5 nM. The viability at 10 µM (in [14]; in the assay on MDA-MB-231 [16]; in assay [19]; in the assay with HT-29 [20]; in the assay on MDA-MB-231 [21]; with HT-29 [22]) was 60% each time.

In turn, `NS(=O)(=O)c1ccc(NC(=O)CCC(=O)NCCOCCOCCOCCOCCOCCOCCOCCOCCOCCOCCOCCOCCOCCOCCOCCOCCOCCOCCOCCOCCOCCOCCOCCOCCOCCOCCOCCOCCOCCOCCOCCOCCOCCOCCOCCOCCOCCOCCOCCOCCOCCOCCOCCOCCOCCNC(=O)CCC(=O)Nc2ccc(S(N)(=O)=O)cc2)cc1` had a Ki at Carbonic anhydrase 9 of 4.8 nM.

With `NS(=O)(=O)c1ccc(NC(=O)CCC(=O)NCCOCCOCCNC(=O)CCC(=O)Nc2ccc(S(N)(=O)=O)cc2)cc1`, the result in the assay with MDA-MB-231 [2] and with MDA-MB-231 [9] was inactive. For the same molecule, the outcome in the assay on SK-OV-3 [25], with SK-OV-3 [26], with HT-29 [13] and with HT-29 [15] was Active. The molecule also displayed a Ki on Carbonic anhydrase 9 of 2.9 nM.

For the molecule `NS(=O)(=O)c1nnc(NC(=O)CCC(=O)O)s1`, the result with MDA-MB-231 [2] and in the assay on MDA-MB-231 [9] was inactive. The outcome in the assay on SK-OV-3 [25], in the assay with SK-OV-3 [26], in the assay with HT-29 [13] and with HT-29 [15] was Active.

For the molecule `NS(=O)(=O)c1nnc(NS(=O)(=O)c2ccc(NC(=O)CCC(=O)NCCOCCOCCNC(=O)CCC(=O)Nc3ccc(S(=O)(=O)Nc4nnc(S(N)(=O)=O)s4)cc3)cc2)s1`, the result with MDA-MB-231 [2] and with MDA-MB-231 [9] was inactive. Further, the outcome in the assay on SK-OV-3 [25], in the assay with SK-OV-3 [26], with HT-29 [13] and with HT-29 [15] was Active. The molecule also yielded a Ki on Carbonic anhydrase 9 of 24.1 nM.

`NS(=O)(=O)c1nnc(NS(=O)(=O)c2ccc(NC(=O)CCC(=O)NCCOCCOCCOCCOCCOCCOCCOCCOCCOCCOCCOCCOCCOCCOCCOCCOCCOCCOCCOCCOCCOCCOCCOCCOCCOCCOCCOCCOCCOCCOCCOCCOCCOCCOCCOCCOCCOCCOCCOCCOCCOCCOCCOCCOCCOCCNC(=O)CCC(=O)Nc3ccc(S(=O)(=O)Nc4nnc(S(N)(=O)=O)s4)cc3)cc2)s1`: the affinity on Carbonic anhydrase 9, expressed as Ki, was 1.7 nM.

`NS(=O)(=O)c1nnc(NS(=O)(=O)c2ccc(NC(=O)CCC(=O)O)cc2)s1`: the result with MDA-MB-231 [2] and in the assay on MDA-MB-231 [9] was inactive. Moreover, the result with SK-OV-3 [25], in the assay with SK-OV-3 [26], in the assay on HT-29 [13] and with HT-29 [15] was Active.

Molecule `NS(=O)(=O)c1nnc(NC(=O)CCC(=O)NCCOCCOCCNC(=O)CCC(=O)Nc2nnc(S(N)(=O)=O)s2)s1` returned a Ki at Carbonic anhydrase 9 of 9.6 nM.
